Data taken from publication PMC11324046, “Second-generation piperazine derivatives as promising radiation countermeasures” (RSC Medicinal Chemistry, 2024).

How the values were obtained:
PBMCs = assay: in vitro; details: 48 h
Method: (§1) To represent the overall inhibitory activity of each compound, viability was calculated as the mean of at least three independent measurements. The purpose was to determine the optimal non-toxic concentration for subsequent use in radioprotection tests.
(§2) Whole blood from a healthy donor was diluted 1 : 1 with Dulbecco's phosphate buffered saline (Sigma-Aldrich, St. Louis, MO, USA). The diluted blood was slowly and carefully pipetted onto an equal volume of Histopaque®-1077 (Sigma-Aldrich, St. Louis, MO, USA). The entire process was carried out at room temperature. Subsequently, centrifugation was performed at 700 × g with the slowest acceleration and deceleration for 20 min at 20 °C. The resulting PBMCs ring was aspirated and centrifuged at 450 × g for 10 min at 20 °C with normal acceleration and deceleration. The cells were washed twice with RPMI 1640 medium with GlutaMAX (Gibco by Thermo Fisher Scientific, Waltham, MA, USA). After the second wash and centrifugation, the cells were diluted with cultivation medium RPMI 1640 with GlutaMAX supplemented with 20% inactivated fetal bovine serum (both Gibco by Thermo Fisher Scientific, Waltham, MA, USA) and 1% antibiotic solution of penicillin, 10 000 IU ml^−1 and streptomycin, 10 mg ml^−1 (Sigma-Aldrich, St. Louis, MO, USA). At the end, the cells were counted using Türk's solution.
(§3) PBMCs were plated into 96-well plates at a cell density of approximately 5 × 10^4 cells per well in a volume of 100 μl. Cells were treated with tested compounds in concentrations of 10, 20, 50, 100, 200, 500, and 1000 μM to determine the optimal non-toxic concentration for each. Cells were incubated for 48 h in a humidified atmosphere with 5% CO2 at 37 °C. 20 μl of MTS – CellTiter 96® AQueous One Solution Cell Proliferation Assay (Promega, Madison, WI, USA) was added to each well 4 h before spectrometric analysis. Cell viability was then determined by measuring absorbance at 490 nm using the Synergy H1 instrument by BioTek. The absorbance of the cell-free culture medium was used as a blank and subtracted from the absorbance readings obtained during the experiment. The viability of untreated control cells was set as 100%.

in vitro = details: male, human
Method: as §1, §2, §3

[1] = Annexin V/PI flow cytometry viability of irradiated MOLT-4 cells; assay type: cell-based, human; details: human, MOLT-4 cells, not irradiated, no irradiation, 24 h, read-out: Viable (annexin V/PI negative) MOLT-4 cells, compound alone; for viability at 24 h, 200 µM: representative histogram Fig. 6A
Method: Consequently, we investigated whether the pre-application of these substances can augment the survival of MOLT-4 cells after irradiation exposure. The radioprotective investigation utilized a leukemia MOLT-4 cell model of hematopoietic origin with flow cytometric quantification of cell viability via annexin V/propidium iodide staining.
In the following step, at 24 h after irradiation, MOLT-4 cell viability and cell death were determined by flow cytometry using an Alexa Fluor® 488 annexin V/Dead Cell Apoptosis kit (Life Technologies, Grand Island, NY, USA) following the manufacturer's instructions. The Alexa Fluor®488 annexin V/Dead Cell Apoptosis kit employs the property of Alexa Fluor®488 conjugated to annexin V to bind to phosphatidylserine in the presence of Ca^2+; and the ability of propidium iodide to enter cells with damaged cell membranes and bind to DNA. For each sample, a minimum of 20 000 events were acquired using a CytoFLEX LX flow cytometer (Beckman Coulter, Miami, FL, USA). List mode data were analyzed using Kaluza Analysis 2.1 software (Beckman Coulter, Miami, FL, USA).

[2] = 100 μM, representative histogram Fig. 5A
[3] = peripheral blood mononuclear cells (PBMCs)

| SMILES | Optimal non-toxic concentration (PBMC viability not below 100% at 0.05 significance level and higher than 90%) (PBMCs; male, human) [µM] | viability at 48 h, 10 µM (in vitro) [%] | viability at 48 h, 20 µM (in vitro) [%] | viability at 48 h, 50 µM (in vitro) [%] | viability at 48 h, 100 µM (in vitro) [%] | viability at 48 h, 200 µM (in vitro) [%] | viability at 48 h, 500 µM (in vitro) [%] | viability at 48 h, 1000 µM (in vitro) [%] | other results |
| --- | --- | --- | --- | --- | --- | --- | --- | --- | --- |
| COc1ccc(OCC(O)CN2CCN(CCO)CC2)c([N+](=O)[O-])c1 (stereo not drawn) [Compound 2, 1-(4-(2-Hydroxyethyl)piperazin-1-yl)-3-(4-methoxy-2-nitrophenoxy)propan-2-ol] | 500 | 102 ± 12 | 100 ± 11 | 99 ± 6 | 98 ± 8 | 99 ± 11 | 93 ± 3 | 78 ± 4 |  |
| NCCCNCCSP(=O)(O)O [WR2721, amifostine, reference compound] |  |  |  |  |  |  |  |  | viability at 24 h, 100 µM [1, 2]: 83%; viability at 24 h, 200 µM [1]: 83%; Change of PBMC viability (in words) (PBMCs; 20 μM): significant decrease; Optimal non-toxic concentration (PBMC viability not below 100% at 0.05 significance level and higher than 90%) (PBMCs; PBMCs, MTS): 10 µM; viability at 48 h, 10 µM (in vitro; [3]): 93 ± 17%; viability at 48 h, 20 µM (in vitro; [3]): 75 ± 30%; viability at 48 h, 50 µM (in vitro; [3]): 37 ± 9%; viability at 48 h, 100 µM (in vitro; [3]): 33 ± 12%; viability at 48 h, 200 µM (in vitro; [3]): 35 ± 17%; viability at 48 h, 500 µM (in vitro; [3]): 37 ± 20% |
| O=[N+]([O-])c1ccc(OCC(O)CN2CCN(CCO)CC2)c(F)c1 (stereo not drawn) [Compound 3, 1-(4-(2-Hydroxyethyl)piperazin-1-yl)-3-(2-fluoro-4-nitrophenoxy)propan-2-ol] | 500 | 98 ± 5 | 95 ± 14 | 90 ± 9 | 92 ± 6 | 92 ± 5 | 92 ± 9 | 81 ± 11 |  |
| NCCCNCCS [WR1065, reference compound] |  | 57 ± 39 | 47 ± 34 | 19 ± 17 | 16 ± 14 | 21 ± 8 | 27 ± 9 |  | viability at 2 h, 100 µM [1, 2]: 64%; viability at 24 h, 200 µM [1]: 18%; Decrease in cell viability of PBMCs (PBMCs; 10 μM (lowest tested concentration)): 43% |
| OCCN1CCN(CC(O)COc2ccc(F)cc2)CC1 (stereo not drawn) [Compound 4, 1-(4-(2-Hydroxyethyl)piperazin-1-yl)-3-(4-fluorophenoxy)propan-2-ol] | 1000 | 104 ± 18 | 103 ± 26 | 112 ± 30 | 107 ± 30 | 110 ± 33 | 110 ± 28 | 105 ± 10 | viability at 48 h, 2000 µM (in vitro): 53 ± 5%; viability at 48 h, 5000 µM (in vitro): 39 ± 5% |
| COc1cc([N+](=O)[O-])ccc1OCC(O)CN1CCN(CCO)CC1 (stereo not drawn) [Compound 1, 1-(4-(2-Hydroxyethyl)piperazin-1-yl)-3-(2-methoxy-4-nitrophenoxy)propan-2-ol] | 500 | 114 ± 14 | 110 ± 11 | 111 ± 15 | 101 ± 17 | 102 ± 21 | 97 ± 22 | 60 ± 10 |  |
| OCCN1CCN(CC(O)COc2cccc(Cl)c2)CC1 (stereo not drawn) [Compound 6, 1-(4-(2-Hydroxyethyl)piperazin-1-yl)-3-(3-chlorophenoxy)propan-2-ol] | 500 | 94 ± 12 | 96 ± 5 | 99 ± 4 | 99 ± 7 | 96 ± 6 | 94 ± 7 | 51 ± 4 |  |
| O=[N+]([O-])c1cc(OCC(O)CN2CCN(CCO)CC2)ccc1Cl (stereo not drawn) [Compound 5, 1-(4-(2-Hydroxyethyl)piperazin-1-yl)-3-(4-chloro-3-nitrophenoxy)propan-2-ol] | 200 | 121 ± 25 | 99 ± 8 | 111 ± 7 | 102 ± 9 | 107 ± 5 | 79 ± 3 | 44 ± 11 |  |
